Measured values as given in the Biogen ADME set (Fang et al. 2023).
In brackets after ≈: the same amount, converted by molar mass.

Conditions: for aqueous solubility: pH 6.8

Row | MDR1-MDCK efflux ratio | intrinsic clearance, human liver microsomes [mL/min/kg] | intrinsic clearance, rat liver microsomes [mL/min/kg] | aqueous solubility [µg/mL] | fraction unbound, human plasma | fraction unbound, rat plasma | SMILES
1 | 0.316 | 120 | 2530 | 11.4 (≈ 45.5 µM) | – | – | Cc1ccc2nc(-c3ccc(N(C)C)cc3)[nH]c2c1
2 | 117 | ≤ 4.74 | 26.8 | 48 (≈ 141 µM) | – | – | Cc1ccccc1-n1c(CC2CCN(C(=O)C3CC3)CC2)n[nH]c1=O
3 | – | 54 | 462 | 43.2 (≈ 146 µM) | – | – | Cc1cccnc1NC(=O)c1csc(-c2ccccc2)n1
4 | 0.563 | 185 | 491 | – | – | – | CCc1sc(N)nc1-c1ccc(OC)cc1
5 | 0.871 | 88.4 | 1840 | – | 0.0178 | – | CCC(=O)N1CCN(c2ccc(Cl)cc2NC(=O)COc2ccccc2)CC1
6 | 0.951 | ≤ 4.74 | 40.3 | 30.4 (≈ 125 µM) | – | – | c1cnc(-n2cccn2)c(CNC2CCCC2)c1
7 | – | 14.7 | 399 | 4.59 (≈ 12.4 µM) | – | – | c1ccc(-c2ccc(Cn3ccnc3-c3cc4n(n3)CCCNC4)cc2)cc1
8 | 26.7 | 5.43 | 98.6 | – | 0.439 | 0.429 | Cc1cc(Nc2cnccn2)cc(C2CCCN(CC(=O)N3CCCC3)C2)n1 (stereo not drawn)
9 | 0.543 | ≤ 4.74 | 21.1 | 34.8 (≈ 151 µM) | – | – | O=C(NCc1ccc(F)cc1)c1ccccn1
10 | 1.28 | 236 | 1200 | 18.2 (≈ 41.2 µM) | 0.00826 | 0.0105 | Cc1ncsc1C(=O)N1CCCCC1c1nc(N(C)C)ncc1-c1cccc(Cl)c1 (stereo not drawn)
11 | 8.7 | 11.4 | 54.5 | 26.7 (≈ 73.4 µM) | – | – | Cc1ccccc1OC1CCN(C(=O)Nc2ccc3c(c2)ncn3C)CC1
12 | 5.72 | 12.8 | 322 | 42.3 (≈ 132 µM) | – | – | O=C(c1cccc(N2CCNC2=O)c1)N1CCc2ccccc2C1
13 | 1.61 | ≤ 4.74 | 28 | – | – | – | NC[C@@](O)(c1ccc(Cl)cc1)c1ccc(-c2cn[nH]c2)cc1
14 | 114 | ≤ 4.74 | 26.1 | 17 (≈ 39.9 µM) | 0.154 | 0.172 | [2H]C([2H])([2H])NC(=O)c1nnc(NC(=O)C2CC2)cc1Nc1cccc(-c2ncn(C)n2)c1OC
15 | 41.1 | 8.92 | 39.3 | 20.9 (≈ 52.1 µM) | – | – | COc1ccc(N2N=C(C)/C(=C(\C)Nc3ccc(S(N)(=O)=O)cc3)C2=O)cc1
16 | 1.98 | 119 | 1960 | – | – | – | CC1CCN(C(=O)CCn2ccc3ccncc32)CC1
17 | 0.597 | 21.2 | 444 | 28.5 (≈ 103 µM) | – | – | CC1(C)CN(CC(=O)NCC#N)c2cccc(Cl)c21
18 | 2.11 | 256 | – | – | 0.0119 | – | O=C(NCCc1ccccc1)c1ccc(NC(=O)N2CCCCc3ccccc32)cc1
19 | – | 35.2 | 698 | – | – | – | O=C(Nc1cccc2ncccc12)[C@H]1CCCN(S(=O)(=O)c2ccc(F)cc2)C1
20 | 3.43 | ≤ 4.74 | 441 | – | – | – | CCc1cc(=O)[nH]c(SCCN2CCCCC2)n1

Row | MDR1-MDCK efflux ratio | intrinsic clearance, human liver microsomes [mL/min/kg] | intrinsic clearance, rat liver microsomes [mL/min/kg] | aqueous solubility [µg/mL] | fraction unbound, human plasma | fraction unbound, rat plasma | SMILES
21 | 0.614 | 131 | 3040 | 34.9 (≈ 103 µM) | – | – | COc1ccc(Cc2ncnn2-c2ccc3c(c2)OCO3)c(OC)c1
22 | – | – | – | 1.91 (≈ 7.69 µM) | – | – | CC(C)(C)C(=O)Nc1sc2c(c1C#N)CCC2
23 | 0.947 | 182 | 2380 | 37.3 (≈ 119 µM) | – | – | CCCN(C(=O)c1c(CC)noc1C)C1Cc2ccccc2C1
24 | – | 22 | 154 | – | 0.0987 | 0.0447 | COc1cc2ncnc(Nc3cccc(O)c3)c2cc1OC
25 | 26.5 | 68.7 | 260 | 39.9 (≈ 103 µM) | – | – | c1cc2c(N3CCNCC3)nc(-c3ccnc(NC4CCCCC4)c3)cc2cn1
26 | 1.68 | 37.6 | 394 | 51.6 (≈ 156 µM) | – | – | CCOC(=O)N1CCN(C(=O)Nc2cccc3c2CCCC3)CC1
27 | – | – | – | 52.4 (≈ 157 µM) | – | – | Cc1nc2ccc(C(=O)NCCCN3Cc4ccccc4C3)cc2[nH]1
28 | 0.64 | 86.3 | 862 | 44.5 (≈ 169 µM) | – | – | CN(CCc1ccccn1)c1cnc2ccccc2n1
29 | 0.442 | 22.6 | 796 | – | – | – | O=c1c2ccncc2ncn1[C@H]1CCN(Cc2ccccc2)C1
30 | 1.76 | 4.81 | 15.7 | – | – | – | N#CCN1CCC(CNC(=O)c2c(F)ccc(F)c2F)CC1
31 | 0.6 | 92.1 | 3950 | 21.5 (≈ 80.2 µM) | – | – | Cc1nc(-c2cc(C)on2)n(CCc2ccccc2)n1
32 | 0.695 | 166 | 2290 | – | – | – | Cc1ccc(Cl)c(OC[C@@]2(O)CN(C3CCC3)CC[C@@H]2O)c1
33 | 25.5 | ≤ 4.74 | 24.8 | – | – | – | Cc1cc(Nc2cc(N)ncn2)c(=O)n2c1C(=O)NC21CCCCC1
34 | – | – | – | 0.97 (≈ 2.65 µM) | – | – | Cc1cc(C)cc(NC(=O)COC(=O)c2nn(C)c(=O)c3ccccc23)c1
35 | 36.5 | 177 | 1370 | – | – | – | Cc1ncc(-c2ccc(C)c(S(=O)(=O)NCc3cnn(C)c3C)c2)o1
36 | 0.498 | 70.9 | 574 | 18.6 (≈ 85.1 µM) | – | – | CCCCCCNc1ncnc2[nH]ccc12
37 | 3.42 | ≤ 4.74 | ≤ 10.7 | 35.4 (≈ 80.2 µM) | 0.0931 | 0.174 | C[C@@H]1c2nnn(-c3ncc(F)cn3)c2CCN1C(=O)c1cccc(C(F)(F)F)c1Cl
38 | 0.748 | 6.66 | 103 | – | – | – | O=c1cc2c(n[nH]1)-c1cnc(N3CCCC3)nc1CC2
39 | 1.17 | ≤ 4.74 | 42.6 | – | – | – | Cn1cc(-c2cccc3c(C(N)=O)cccc23)cn1
